Test results as given in patent US9745299B2, “Substituted tricyclic benzimidazoles as kinase inhibitors” (SELVITA SA, priority 2012, dated 2017).

Experiments:
[1] = target: T1, CDK8/CyclinC (Homo sapiens, UniProt P49336); experiment: ADP-Glo Kinase Assay, CDK8/CyclinC; type: biochemical; details: read-out: % inhibition at 1 μM CDK8/CyclinC; also: ATP at apparent Km (53 µM)
T1 construct: purchased ProQinase, Freiburg, Germany
Protocol: (§1) Testing of the compounds described in this invention was carried out using the ADP-Glo™ Kinase Assay from Promega Corporation (Madison, Wis., USA).
(§2) The ADP-Glo™ Kinase Assay is a luminescent ADP detection assay to measure kinase activity by quantifying the amount of ADP produced during a kinase reaction. The kinase assay is performed in kinase assay buffer (5 mM MOPS, pH 7.5, 5 mM MgCl2, 0.4 mM EDTA, 1.5 mM DTT). Test samples initially dissolved in DMSO at 10 mM were diluted with the assay buffer to 1000 nM. A 30 μL volume/well of a mixture of substrates containing ATP (final ATP concentration in each kinase assay was equal to its apparent ATP Km).
(§3) The assay was performed in two steps: first, after the kinase reaction, an equal volume of ADP-Glo™ Reagent was added to terminate the kinase reaction and deplete the remaining ATP. Second, the Kinase Detection Reagent was added to simultaneously convert ADP to ATP and allowed the newly synthesized ATP to be measured using a luciferase/luciferin reaction. The luminescent signal generated was proportional to the ADP concentration produced and was correlated with kinase activity.

[2] = target: T2, CDK9/CyclinT (Homo sapiens, UniProt P50750); experiment: ADP-Glo Kinase Assay, CDK9/CyclinT; type: biochemical; details: read-out: % inhibition at 1 μM CDK9/CyclinT; also: ATP at apparent Km (26 µM)
T2 construct: purchased Proqinase, Freiburg, Germany
Protocol: as §1, §2, §3

[3] = target: T3, CDK2/CyclinE (Homo sapiens, UniProt P24941); experiment: ADP-Glo Kinase Assay, CDK2/CyclinE; type: biochemical; details: read-out: % inhibition at 1 μM CDK2/CyclinE
T3 construct: purchased Millipore, Billerica, Mass., USA
Protocol: as §1, §2, §3

[4] = test system: HCT116 cells; experiment: MTS viability assay, HCT116; type: cell-based; details: Homo sapiens, HCT-116, HCT116, 72 hour incubation, read-out: IC50 [μM] HCT116 ED50
Text: (§4) The viability of CDK8 expressing cells can be evaluated using a tetrazolium salt reduction cell-based assay. In viable cells this colorimetric assay can measure mitochondrial reduction of a tetrazolium component (MTS) into an […] formazan product. For MTS viability assay, human colon cancer cell lines were used (SW480 and HCT116 cell lines), containing elevated levels of CDK8 protein and highly dependent on its expression for proliferation [see, Firenstein et al. Nature 455 (25):547-551, (2008)]. These cell lines were used to determine the activity of the compounds provided herein to inhibit CDK8 in intact cells. Human tumor cell lines were obtained from ATCC (Rockville Md. USA). In each case, and by methods known to those practiced in the art of cell culture, vaiability was measured after 72 hour incubation with the compounds provided herein using a standard MTS protocol (CellTiter 96® AQueous Non-Radioactive Cell Proliferation Assay).
(§5) Briefly, cells were plated at 10,000-20,000 cells per well in DMEM medium supplemented with 10% fetal bovine serum. The compound plate was set up by aliquoting into column 1 of a 96-well plate, the negative control (DMSO), aliquoting into column 12 the positive control, and titrating the test compound in serial dilutions into columns 2-11. An aliquot from each well of the compound plate was transferred to the plated cells and then incubated at 37° C. in 5% CO2. 20 μL of MTS tetrazolium was added to each well of optical plate and the cells were incubated at 37° C. in 5% CO2 for 2 hours. The absorbance was measured at 490 nm using a microplate reader.

[5] = test system: SW480 cells; experiment: MTS viability assay, SW480; type: cell-based; details: Homo sapiens, SW480, 72 hour incubation, read-out: IC50 [μM] SW-480 ED50
Text: as §4, §5

T1 sequence (P49336 whole entry): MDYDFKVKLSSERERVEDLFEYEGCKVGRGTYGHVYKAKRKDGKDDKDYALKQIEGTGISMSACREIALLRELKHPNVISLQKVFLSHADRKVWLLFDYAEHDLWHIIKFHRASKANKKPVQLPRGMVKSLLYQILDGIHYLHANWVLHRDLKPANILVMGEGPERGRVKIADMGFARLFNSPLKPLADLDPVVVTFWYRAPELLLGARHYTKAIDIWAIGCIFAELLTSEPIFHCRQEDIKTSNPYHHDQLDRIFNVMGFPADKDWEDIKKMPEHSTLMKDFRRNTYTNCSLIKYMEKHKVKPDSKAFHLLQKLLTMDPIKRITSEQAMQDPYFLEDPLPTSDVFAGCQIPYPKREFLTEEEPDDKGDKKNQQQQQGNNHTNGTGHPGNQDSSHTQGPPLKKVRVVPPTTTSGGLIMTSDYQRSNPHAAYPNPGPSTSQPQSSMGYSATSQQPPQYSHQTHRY
T1 sequence (P24863 whole entry partner): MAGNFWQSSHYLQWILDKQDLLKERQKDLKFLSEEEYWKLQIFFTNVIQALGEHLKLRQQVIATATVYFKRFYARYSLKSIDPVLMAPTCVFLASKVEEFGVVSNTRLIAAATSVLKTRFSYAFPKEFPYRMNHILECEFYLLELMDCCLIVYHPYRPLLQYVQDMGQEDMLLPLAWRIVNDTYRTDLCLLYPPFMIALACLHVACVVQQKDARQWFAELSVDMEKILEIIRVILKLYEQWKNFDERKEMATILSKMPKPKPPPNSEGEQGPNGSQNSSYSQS
T2 sequence (P50750 whole entry): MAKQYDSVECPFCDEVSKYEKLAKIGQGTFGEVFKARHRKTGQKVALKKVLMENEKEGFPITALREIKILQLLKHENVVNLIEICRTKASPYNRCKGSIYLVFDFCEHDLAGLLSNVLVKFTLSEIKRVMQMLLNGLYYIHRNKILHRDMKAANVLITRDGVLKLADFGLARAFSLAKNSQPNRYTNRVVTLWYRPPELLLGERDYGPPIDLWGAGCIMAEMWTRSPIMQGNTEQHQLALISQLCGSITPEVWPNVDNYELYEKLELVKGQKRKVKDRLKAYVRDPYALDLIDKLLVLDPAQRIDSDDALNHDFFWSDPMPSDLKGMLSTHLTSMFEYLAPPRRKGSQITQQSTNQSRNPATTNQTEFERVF
T2 sequence (O60563 whole entry partner): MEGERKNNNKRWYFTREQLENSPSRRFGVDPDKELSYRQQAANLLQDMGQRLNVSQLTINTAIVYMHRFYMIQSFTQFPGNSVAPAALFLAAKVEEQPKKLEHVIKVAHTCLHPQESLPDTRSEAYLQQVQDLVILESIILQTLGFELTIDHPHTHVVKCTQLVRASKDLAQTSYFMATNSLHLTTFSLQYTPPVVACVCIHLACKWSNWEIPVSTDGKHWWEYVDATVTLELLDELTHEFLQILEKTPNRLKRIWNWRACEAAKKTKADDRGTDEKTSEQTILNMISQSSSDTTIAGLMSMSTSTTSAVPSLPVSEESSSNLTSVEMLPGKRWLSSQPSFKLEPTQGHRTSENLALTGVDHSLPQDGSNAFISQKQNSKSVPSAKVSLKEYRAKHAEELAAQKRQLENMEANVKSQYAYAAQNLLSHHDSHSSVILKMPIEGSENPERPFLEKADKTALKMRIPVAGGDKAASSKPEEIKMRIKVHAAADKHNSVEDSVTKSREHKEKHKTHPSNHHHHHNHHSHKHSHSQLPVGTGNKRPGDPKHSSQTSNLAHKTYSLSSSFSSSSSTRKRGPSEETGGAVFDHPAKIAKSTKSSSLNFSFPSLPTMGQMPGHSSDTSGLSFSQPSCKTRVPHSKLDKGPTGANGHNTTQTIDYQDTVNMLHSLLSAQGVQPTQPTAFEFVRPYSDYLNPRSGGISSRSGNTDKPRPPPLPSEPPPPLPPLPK

| SMILES | inhibition at 1 µM [1] [%] | inhibition at 1 µM [2] [%] | inhibition at 1 µM [3] [%] | IC50 [4] [µM] | IC50 [5] [µM] |
| --- | --- | --- | --- | --- | --- |
| N[C@@H]1CCN(c2nc3c(Br)c(Br)c(Br)c4c3n2CCC4)C1 [Example 1AE] | 97 | 61 | 44 | 0.3 | 1.1 |
| NCC1CN(c2nc3c(Br)c(Br)c(Br)c4c3n2CCC4)CCO1 (centres unmarked) [Example 1AF] |  |  |  | 1.3 | 1.8 |
| NC1CCN(c2nc3c(Br)c(Br)c(Br)c4c3n2CCC4)CC1 [Example 1AG] | 82 | 42 | 33 | 1.3 | 0.5 |
| Cc1c(Br)c(Br)c2c3c1nc(N1CC[C@@H](N)C1)n3CCC2 [Example 1AK] | 93 | 2 | 0 | 1.7 | 1.8 |
| Cc1c(Br)c(Br)c2c3c1nc(N[C@H]1CCNC1)n3CCC2 [Example 1AL] |  |  |  | 5.3 | 1.8 |
| COc1c(Br)c2c3c(nc(N4CCNCC4)n3CCC2)c1Br [Example 1AN] | 61 | 10 |  | 2.4 |  |
| Cc1c(Br)c(Br)c2c3c1nc(N1CCC(N)CC1)n3CCC2 [Example 1AP] | 65 | 15 |  |  |  |
| CC1CCc2c(Br)c(Br)c(Br)c3nc(N4CCNCC4)n1c23 (centres unmarked) [Example 1AU] | 90 | 12 |  | 0.2 | 1.1 |
| Brc1c(Br)c2c3c(nc(N[C@H]4CCCNC4)n3CCC2)c1Br [Example 1AW] | 57 | 41 | 0 |  |  |
| Cc1c(Br)c(Br)c2c3c1nc(N1CCCNCC1)n3CCC2 [Example 1AZ] | 61 |  |  | 1.6 |  |
| N[C@@H]1CCCC[C@H]1Nc1nc2c(Br)c(Br)c(Br)c3c2n1CCC3 [Example 1B] |  |  |  | 1.3 | 0.5 |
| CC1CNCCN1c1nc2c(Br)c(Br)c(Br)c3c2n1CCC3 (centres unmarked) [Example 1E] | 89 | 20 | 2 | 1.9 | 2.7 |
| N[C@H]1CCN(c2nc3c(Br)c(Br)c(Br)c4c3n2CCC4)C1 [Example 1G] | 96 | 45 | 29 | 0.7 | 1.1 |
| NCC1CCCN1c1nc2c(Br)c(Br)c(Br)c3c2n1CCC3 (centres unmarked) [Example 1H] | 67 | 8 | 0 |  |  |
| NC1CCCN(c2nc3c(Br)c(Br)c(Br)c4c3n2CCC4)C1 (centres unmarked) [Example 1I] |  |  |  | 1.5 |  |
| Brc1c(Br)c2c3c(nc(NC4CCNCC4)n3CCC2)c1Br [Example 1J] |  |  |  | 0.5 |  |
| Brc1c(Br)c2c3c(nc(NC4CCNC4)n3CCC2)c1Br (centres unmarked) [Example 1L] | 81 | 9 | 19 | 1.1 | 1.4 |
| NC1CCCN(c2nc3c(Br)c(Br)c(Br)c4c3n2CCC4)CC1 (centres unmarked) [Example 1M] | 59 | 0 | 6 | 1.1 | 1.5 |
| Brc1cc2nc(N3CCNCC3)n3c2c(c1Br)CCC3 [Example 1N] | 49 |  |  | 4.3 |  |
| Cc1c(Br)c(Br)c2c3c1nc(NCCN)n3CCC2 [Example 1O] |  |  |  | 1.3 |  |
| Cc1c(Br)c2c3c(nc(NCCN)n3CCC2)c1Br [Example 1P] |  |  |  | 1.4 |  |
| Cc1c(Br)c(Br)c2nc(N3CCNCC3)n3c2c1CCC3 [Example 1S] | 54 | 4 |  | 1.7 | 2.5 |
| NCCNc1nc2c([N+](=O)[O-])c(Br)c(Br)c3c2n1CCC3 [Example 1U] |  |  |  | 1.6 |  |
| O[C@@H]1CCN(c2nc3c(Br)c(Br)c(Br)c4c3n2CCC4)C1 [Example 3AC] | 94 | 26 | 12 |  |  |

| SMILES | inhibition at 1 µM [1] [%] | inhibition at 1 µM [2] [%] | inhibition at 1 µM [3] [%] | IC50 [4] [µM] | IC50 [5] [µM] |
| --- | --- | --- | --- | --- | --- |
| Cc1c(Br)c(Br)c2c3c1nc(N1CCNC(C)C1)n3CCC2 (centres unmarked) [Example 3AH] | 76 | 0 | 0 |  |  |
| Cc1c(Br)c(Br)c2c3c1nc(N1CCN(C)CC1)n3CCC2 [Example 3AK] | 75 | -9 | 0 |  |  |
| CN(C)C1CCN(c2nc3c(Br)c(Br)c(Br)c4c3n2CCC4)C1 (centres unmarked) [Example 3AL] | 76 | 18 |  |  |  |
| O[C@H]1CCN(c2nc3c(Br)c(Br)c(Br)c4c3n2CCC4)C1 [Example 3AN] | 85 | 21 | 4 |  |  |
| OC1CCN(c2nc3c(I)c(Br)c(Br)c4c3n2CCC4)CC1 [Example 3AO] | 93 | 22 | 16 |  |  |
| CCN(CC)c1nc2c(C)c(Br)c(Br)c3c2n1CCC3 [Example 3AP] | 81 | 9 |  |  |  |
| Cc1c(Br)c(Br)c2c3c1nc(N1CCSCC1)n3CCC2 [Example 3AR] | 75 |  |  |  |  |
| Cc1c(Br)c(Br)c2c3c1nc(N1CCN[C@H](C)C1)n3CCC2 [Example 3AT] | 82 |  |  |  |  |
| Cc1c(Br)c(Br)c2c3c1nc(N1CCOCC1)n3CCC2 [Example 3AU] | 76 |  |  |  |  |
| Brc1c(Br)c2c3c(nc(Nc4ccncc4)n3CCC2)c1Br [Example 3B] | 45 |  |  |  |  |
| Brc1c(Br)c2c3c(nc(Nc4ccccc4)n3CCC2)c1Br [Example 3C] | 59 |  |  |  |  |
| Brc1c(Br)c2c3c(nc(NC4CCCCC4)n3CCC2)c1Br [Example 3E] | 64 | 3 | 3 |  |  |
| OCCCNc1nc2c(Br)c(Br)c(Br)c3c2n1CCC3 [Example 3F] | 67 |  |  |  |  |
| Brc1c(Br)c2c3c(nc(N4CCOCC4)n3CCC2)c1Br [Example 3G] | 80 |  |  |  |  |
| CN(C)CCNc1nc2c(Br)c(Br)c(Br)c3c2n1CCC3 [Example 3K] |  |  |  | 2.2 |  |
| Brc1c(Br)c2c3c(nc(NCCCN4CCCC4)n3CCC2)c1Br [Example 3L] | 54 | 6 |  |  |  |
| CC1(C)CN(c2nc3c(Br)c(Br)c(Br)c4c3n2CCC4)CCN1 [Example 3N] | 58 | 18 |  |  |  |
| CC1CCCN1c1nc2c(I)c(Br)c(Br)c3c2n1CCC3 (centres unmarked) [Example 3S] | 89 | 16 | 7 |  |  |
| OCC1CCCN(c2nc3c(Br)c(Br)c(Br)c4c3n2CCC4)C1 (centres unmarked) [Example 3U] | 92 | 24 | 9 |  |  |
| CCN(CC)c1nc2c(I)c(Br)c(Br)c3c2n1CCC3 [Example 3X] | 92 | 41 | 9 |  |  |
| Nc1nc2c(I)c(Br)c(Br)c3c2n1CCC3 [Example 3Y] | 69 | 17 | 21 |  |  |
| COC1CCN(c2nc3c(Br)c(Br)c(Br)c4c3n2CCC4)CC1 [Example 4A, 7,8,9-tribromo-2-(4-methoxypiperidin-1-yl)-5,6-dihydro-4H-imidazo[4,5,1-ij]quinoline] | 75 | 0 | 8 |  |  |
| Cc1c(Br)c(Br)c2c3c1nc(C1CCN(C(C)C)CC1)n3CCC2 [Example 7D] | 66 |  |  |  |  |
